# Key:
# [1] = Quantum yield measurements versus Acridine Yellow in EtOH; assay type: physicochemical; conditions: for φ (quantum yield): excitation 460 nm; for φ (%): MKAC compound library, quantum yield
# Protocol: (§1) ^1H-NMR, ^19F-NMR and ^13C-NMR spectra were recorded on Bruker ACF300 (300 MHz), DPX300 (300 MHz) and AMX500 (500 MHz) spectrometers. High resolution mass spectra (ESI) were obtained on a Finnigan/MAT 95XL-T spectrometer. Spectroscopic and quantum yield data were measured on a SpectraMax M2 spectrophotometer (Molecular Devices). Data analysis was performed using GraphPrism 5.0. Analytical characterization was performed on a HPLC-MS (Agilent-1200 series) with a DAD detector and a single quadrupole mass spectrometer (6130 series) with an ESI probe. Analytical HPLC method: eluents, A: H2O (0.1% HCOOH), B: CH3CN (0.1% HCOOH), gradient 5% B to 95% B (10 min). Reverse-phase Phenomenex C18 Luna column (4.6×50 mm^2, 3.5 […]), flow rate: 1 mL/min.
# Quantum yields were calculated by measuring the integrated emission area of the fluorescent spectra and comparing to the area measured for Acridine Yellow in EtOH when excited at 460 nm (Φfluorescence^AcridineYellow=0.47). Quantum yields for the amino-triazolyl-BODIPYs were calculated using the equation below, where F represents the area of fluorescent emission, η is the refractive index of the solvent, and Abs is absorbance at the excitation wavelength selected for standards and samples. Emission was integrated between 510 and 700 nm.
# [2] = Absorbance and fluorescence emission spectra (SpectraMax M2); assay type: physicochemical; conditions: for λmax Abs. (nm) / λmax Em. (nm): MKAC compound library
# Protocol: BDC-8 (Blue): absorbance λmax=473 nm, emission λmax=585 nm; MK101-8 (Green): absorbance λmax=474 nm, emission λmax=563 nm; MKHA374-48 (Yellow): absorbance λmax=468 nm, λem=557 nm. The corresponding spectra of a reported BODIPY (BD-27; Red) are also included for comparison: absorbance λmax=551 nm, emission λmax=568 nm. The structures of BDC-8, MK101-8, MKHA374-48 and BD-27 are also depicted.
# as §1
SMILES,"φ (quantum yield) ([1]; BDC library, Table 2) [%]","λmax Absorp. ([2]; BDC library, Table 2) [nm]","λmax Emission ([2]; BDC library, Table 2) [nm]",also measured
CCCCCC(O)c1cn(-c2ccc3n2[B-](F)(F)[N+]2=C(N4CCCCC4)C=CC2=C3c2ccc(NC(C)=O)cc2)nn1 (racemic) [BDCAC-69],–,–,–,"φ (quantum yield) ([1]; BDCAC library, Table 3): 0.8%; λmax Absorp. ([2]; BDCAC library, Table 3): 468 nm; λmax Emission ([2]; BDCAC library, Table 3): 587 nm"
CCCC(C)c1cn(-c2ccc3n2[B-](F)(F)[N+]2=C(N4CCCCC4)C=CC2=C3c2ccc(NC(=O)CCl)cc2)nn1 (racemic) [BDCCA-3],–,–,–,"φ (quantum yield) ([1]; BDCCA library, Table 4): 0.9%; λmax Absorp. ([2]; BDCCA library, Table 4): 467 nm; λmax Emission ([2]; BDCCA library, Table 4): 587 nm"
CCCCCC(O)c1cn(-c2ccc3n2[B-](F)(F)[N+]2=C(N4CCCCC4)C=CC2=C3c2ccc(NC(=O)CCl)cc2)nn1 (racemic) [BDCCA-69],–,–,–,"φ (quantum yield) ([1]; BDCCA library, Table 4): 0.7%; λmax Absorp. ([2]; BDCCA library, Table 4): 467 nm; λmax Emission ([2]; BDCCA library, Table 4): 587 nm"
CCCC(C)c1cn(-c2ccc3n2[B-](F)(F)[N+]2=C(NCc4cc(OC)ccc4OC)C=CC2=C3c2ccc(NC(C)=O)cc2)nn1 (racemic) [MKAC181-3],–,–,–,φ (%) [1]: 15.41%; λmax Abs. (nm) ([2]; absorbance maximum): 465 nm; λmax Em. (nm) ([2]; fluorescence emission maximum): 562 nm
CCCCCC(O)c1cn(-c2ccc3n2[B-](F)(F)[N+]2=C(NCc4cc(OC)ccc4OC)C=CC2=C3c2ccc(NC(C)=O)cc2)nn1 (racemic) [MKAC181-69],–,–,–,φ (%) [1]: 16.50%; λmax Abs. (nm) ([2]; absorbance maximum): 465 nm; λmax Em. (nm) ([2]; fluorescence emission maximum): 561 nm
CCCC(C)c1cn(-c2ccc3n2[B-](F)(F)[N+]2=C(N(C)Cc4ccccc4)C=CC2=C3c2ccc(NC(C)=O)cc2)nn1 (racemic) [MKAC195-3],–,–,–,φ (%) [1]: 6.53%; λmax Abs. (nm) ([2]; absorbance maximum): 465 nm; λmax Em. (nm) ([2]; fluorescence emission maximum): 574 nm
CCCCCC(O)c1cn(-c2ccc3n2[B-](F)(F)[N+]2=C(N(C)Cc4ccccc4)C=CC2=C3c2ccc(NC(C)=O)cc2)nn1 (racemic) [MKAC195-69],–,–,–,φ (%) [1]: 3.467%; λmax Abs. (nm) ([2]; absorbance maximum): 467 nm; λmax Em. (nm) ([2]; fluorescence emission maximum): 560 nm
CCCC(C)c1cn(-c2ccc3n2[B-](F)(F)[N+]2=C(N4CCCC4)C=CC2=C3c2ccc(NC(C)=O)cc2)nn1 (racemic) [MKAC215-3],–,–,–,φ (%) [1]: 3.81%; λmax Abs. (nm) ([2]; absorbance maximum): 461 nm; λmax Em. (nm) ([2]; fluorescence emission maximum): 569 nm
CCCCCC(O)c1cn(-c2ccc3n2[B-](F)(F)[N+]2=C(N4CCCC4)C=CC2=C3c2ccc(NC(C)=O)cc2)nn1 (racemic) [MKAC215-69],–,–,–,φ (%) [1]: 2.00%; λmax Abs. (nm) ([2]; absorbance maximum): 462 nm; λmax Em. (nm) ([2]; fluorescence emission maximum): 566 nm
CC(C)(C)c1cn(-c2ccc3n2[B-](F)(F)[N+]2=C(N4CCCCC4)C=CC2=C3c2ccc(N)cc2)nn1 [BDC-1],0.18,475,593,–
CN(C)Cc1cn(-c2ccc3n2[B-](F)(F)[N+]2=C(N4CCCCC4)C=CC2=C3c2ccc(N)cc2)nn1 [BDC-2],0.13,469,587,–
CCCC(C)c1cn(-c2ccc3n2[B-](F)(F)[N+]2=C(N4CCCCC4)C=CC2=C3c2ccc(N)cc2)nn1 (stereo not shown) [BDC-3],0.37,475,567,–
Nc1ccc(C2=C3C=CC(N4CCCCC4)=[N+]3[B-](F)(F)n3c2ccc3-n2cc(C3CC3)nn2)cc1 [BDC-4],0.16,475,590,–
Nc1ccc(C2=C3C=CC(N4CCCCC4)=[N+]3[B-](F)(F)n3c2ccc3-n2cc(C3CCCC3)nn2)cc1 [BDC-5],0.16,476,582,–
Nc1ccc(C2=C3C=CC(N4CCCCC4)=[N+]3[B-](F)(F)n3c2ccc3-n2cc(C3CCCCC3)nn2)cc1 [BDC-6],0.24,473,582,–
Nc1ccc(C2=C3C=CC(N4CCCCC4)=[N+]3[B-](F)(F)n3c2ccc3-n2cc(CC3CCCC3)nn2)cc1 [BDC-7],0.23,476,573,–

SMILES,"φ (quantum yield) ([1]; BDC library, Table 2) [%]","λmax Absorp. ([2]; BDC library, Table 2) [nm]","λmax Emission ([2]; BDC library, Table 2) [nm]",also measured
Nc1ccc(C2=C3C=CC(N4CCCCC4)=[N+]3[B-](F)(F)n3c2ccc3-n2cc(CC3CCCCC3)nn2)cc1 [BDC-8],0.24,473,585,absorbance λmax ([2]; FIG. 2 normalized spectra): 473 nm; emission λmax ([2]; FIG. 2 normalized spectra): 585 nm
Cc1ccc(-c2cn(-c3ccc4n3[B-](F)(F)[N+]3=C(N5CCCCC5)C=CC3=C4c3ccc(N)cc3)nn2)cc1 [BDC-10],0.28,470,564,–
CC(C)(C)c1ccc(-c2cn(-c3ccc4n3[B-](F)(F)[N+]3=C(N5CCCCC5)C=CC3=C4c3ccc(N)cc3)nn2)cc1 [BDC-11],0.74,471,552,–
CCCCc1ccc(-c2cn(-c3ccc4n3[B-](F)(F)[N+]3=C(N5CCCCC5)C=CC3=C4c3ccc(N)cc3)nn2)cc1 [BDC-12],0.09,473,594,–
CN(C)c1ccc(-c2cn(-c3ccc4n3[B-](F)(F)[N+]3=C(N5CCCCC5)C=CC3=C4c3ccc(N)cc3)nn2)cc1 [BDC-13],0.03,475,616,–
COc1cc(OC)cc(-c2cn(-c3ccc4n3[B-](F)(F)[N+]3=C(N5CCCCC5)C=CC3=C4c3ccc(N)cc3)nn2)c1 [BDC-14],0.18,473,578,–
Nc1ccc(C2=C3C=CC(N4CCCCC4)=[N+]3[B-](F)(F)n3c2ccc3-n2cc(-c3ccc(OC(F)(F)F)cc3)nn2)cc1 [BDC-15],0.19,469,549,–
Nc1ccc(C2=C3C=CC(N4CCCCC4)=[N+]3[B-](F)(F)n3c2ccc3-n2cc(-c3ccc(F)c(F)c3)nn2)cc1 [BDC-16],0.18,471,585,–
Nc1ccc(C2=C3C=CC(N4CCCCC4)=[N+]3[B-](F)(F)n3c2ccc3-n2cc(COc3ccccc3)nn2)cc1 [BDC-17],0.11,474,591,–
CN(Cc1ccccc1)Cc1cn(-c2ccc3n2[B-](F)(F)[N+]2=C(N4CCCCC4)C=CC2=C3c2ccc(N)cc2)nn1 [BDC-18],0.18,471,580,–
Nc1ccc(C2=C3C=CC(N4CCCCC4)=[N+]3[B-](F)(F)n3c2ccc3-n2cc(CCc3ccccc3)nn2)cc1 [BDC-19],0.08,476,594,–
COc1ccc2cc(-c3cn(-c4ccc5n4[B-](F)(F)[N+]4=C(N6CCCCC6)C=CC4=C5c4ccc(N)cc4)nn3)ccc2c1 [BDC-22],0.28,472,579,–
Nc1ccc(C2=C3C=CC(N4CCCCC4)=[N+]3[B-](F)(F)n3c2ccc3-n2cc(-c3ccc(-c4ccccc4)cc3)nn2)cc1 [BDC-23],0.20,472,570,–
Nc1ccc(C2=C3C=CC(N4CCCCC4)=[N+]3[B-](F)(F)n3c2ccc3-n2cc(-c3ccc(F)cc3F)nn2)cc1 [BDC-26],0.12,473,585,–
CCCC(C)c1cn(-c2ccc3n2[B-](F)(F)[N+]2=C(NCc4cc(OC)ccc4OC)C=CC2=C3c2ccc(NC(=O)CCl)cc2)nn1 (stereo not shown) [MKCA181-3],–,–,–,"λmax Absorp. (nm) ([2]; MKCA compound library, absorbance maximum): 465 nm; λmax Emission (nm) ([2]; MKCA compound library, fluorescence emission maximum): 564 nm"

# — patent US9513294B2, “Megastokes amino-triazolyl-BODIPY compounds and applications to live neuron staining and human serum albumin FA1 drug site probing” (National University of Singapore, priority 2012, dated 2016)
